Test results as given in paper PMC8058733, “A pain killer without analgesic tolerance designed by co-targeting PSD-95-nNOS interaction and α2-containning GABAARs” (Theranostics, 2021).

Columns and labels:
[1] = target: T1, PSD-95-nNOS complex (Rattus norvegicus, UniProt P29476); test: Co-IP of PSD-95-nNOS complex levels in the spinal dorsal horn after SNL; type: in vivo; conditions: SNL rats treated by ZL006-05
T1 construct: dorsal spinal cord tissues (L4 and L5) were lysed in 400 μl RIPA; from tissue; host or cells: rat dorsal spinal cord (L4 and L5), SNL model

[2] = test system: SNL-induced mechanical hyperalgesia; test: SNL-induced mechanical hyperalgesia, von Frey; type: in vivo, mice
Description: Neuropathic pain was induced by segmental spinal nerve ligation (SNL). Animals were anesthetized with isoflurane. After the loss of righting reflex, the animal was fixed in the prone position. The SNL model was prepared as described previously: a median skin incision with about 3-5 cm length in L4-S2 level of the mouse back was made, the muscles next to the vertebrae till the sixth lumbar protruding were separated, the L5/L6 joint protruding on the right side was exposed and excised, and L6 processus transversus was partially split so that the L4-L6 spinal nerves on the right side were exposed. L5 nerve was gently isolated and tightly ligated with 5-0 silk thread. The wound was closed with 4-0 silk thread suture and covered with iodine solution. After nerve ligation, animals with signs of paw clonus or autotomy were excluded from further experiments.
For mice, the threshold for 50% PWT response to mechanical stimulus was quantified by assessing the paw withdrawal threshold using von Frey filaments (Touch-Test TM Sensory Evaluator, North coast Medical, Inc.). Mice were placed individually in a plastic cage (4.5 × 5 × 11 cm) with a wire mesh bottom which allowed full access to the paws. Behavioral accommodation was allowed for 20-30 min until cage exploration and major grooming activities ceased. Mechanical threshold was measured by applying a von Frey filament to the ventral surface of the right hind paw until a positive sign of pain behavior was elicited. The paradigm for assessing the threshold was as follows. Von Frey filaments with logarithmically incremental stiffness (0.02-2 g) were applied serially to the paw by the up-down method. The filaments were presented, in ascending order of strength, perpendicular to the plantar surface with sufficient force to causes light bending against the paw and held for 4s. A positive response was noted if the paw was sharply withdrawn. Flinching immediately upon removal of the hair was also considered a positive response. The 2-g filament was selected as the upper limit cut-off for testing. If there was no response at 2-g filament, animals were assigned this cut-off value. The pattern of positive and negative withdrawal responses was converted to 50% threshold according to the formula: 50% PWT = 10 log (X) + κδ. X = value (in log unit) of the final von Frey hair used; κ is correction factors based on the pattern of responses from the calibration table; δ = mean difference in log units between stimuli (here, 0.224).

[3] = test system: locomotor activity; test: Open field test, locomotor activity; type: in vivo; conditions: mice, 1 h after injection, ZL006-05 60 mg/kg, i.v., diazepam 0.5 mg/kg
Description: The locomotor activity was assessed by the open field test as described previously. The apparatus consisted of a large area composed of plastic, surrounded by walls that were 100 cm high. The floor was 50 × 50 cm for mice; the overall illumination was 25 lux. Each animal was gently placed in the center of the open field, and its behavior was videotaped. The distance the animals travelled was measured in a 5-min session using ANY-maze (Stoelting Co., IL, USA). After each trial, the plate was cleaned with 70% EtOH. No stressor was applied to the animals for at least 12 h before the test.

[4] = test system: spatial memory; test: Morris water maze task; type: in vivo; conditions: rats; ZL006-05 90 mg/kg/d, i.g.; MK801 0.25 mg/kg/d, i.v.; 6 days
Description: The Morris water maze task was used to exam spatial cognitive performance of rats. A circular swimming pool (Jiliang Neuroscience Inc.) measuring 180 cm in diameter and 48 cm in height was filled with water to a depth of 26 cm at 24 ± 2 °C. Four starting points around the edge of the pool were designated as N, E, S, and W, which divided the pool into four quadrants. A platform, 10 cm in diameter, was located in a constant position in the middle of one quadrant. To render it invisible to the rats, platform was submerged 2.0 cm below the surface of the water. The task for the rats was to escape from the water by locating the hidden platform. Two days before training, the animals were habituated to swimming for 60 s in the pool without a platform. In training session, rats were trained to escape from the water by locating the platform which was above the water with a red flag on it. Then, one block of four trails was given for 6 consecutive days, and on each day, two groups of rats were administrated with MK801 (0.25 mg/kg, i.v.) or vehicle (6 mL/kg, i.v.) 30 minutes before the first trail. Meanwhile, another two groups of rats were treated with ZL006-05 (90 mg/kg, i.g.) or vehicle (6 mL/kg, i.g.) 1 hour before the first trail. […] During retention, the number of crossings of the platform location and the time spent in the target quadrant were measured.

T1 sequence (P29476 whole entry, one chain of several): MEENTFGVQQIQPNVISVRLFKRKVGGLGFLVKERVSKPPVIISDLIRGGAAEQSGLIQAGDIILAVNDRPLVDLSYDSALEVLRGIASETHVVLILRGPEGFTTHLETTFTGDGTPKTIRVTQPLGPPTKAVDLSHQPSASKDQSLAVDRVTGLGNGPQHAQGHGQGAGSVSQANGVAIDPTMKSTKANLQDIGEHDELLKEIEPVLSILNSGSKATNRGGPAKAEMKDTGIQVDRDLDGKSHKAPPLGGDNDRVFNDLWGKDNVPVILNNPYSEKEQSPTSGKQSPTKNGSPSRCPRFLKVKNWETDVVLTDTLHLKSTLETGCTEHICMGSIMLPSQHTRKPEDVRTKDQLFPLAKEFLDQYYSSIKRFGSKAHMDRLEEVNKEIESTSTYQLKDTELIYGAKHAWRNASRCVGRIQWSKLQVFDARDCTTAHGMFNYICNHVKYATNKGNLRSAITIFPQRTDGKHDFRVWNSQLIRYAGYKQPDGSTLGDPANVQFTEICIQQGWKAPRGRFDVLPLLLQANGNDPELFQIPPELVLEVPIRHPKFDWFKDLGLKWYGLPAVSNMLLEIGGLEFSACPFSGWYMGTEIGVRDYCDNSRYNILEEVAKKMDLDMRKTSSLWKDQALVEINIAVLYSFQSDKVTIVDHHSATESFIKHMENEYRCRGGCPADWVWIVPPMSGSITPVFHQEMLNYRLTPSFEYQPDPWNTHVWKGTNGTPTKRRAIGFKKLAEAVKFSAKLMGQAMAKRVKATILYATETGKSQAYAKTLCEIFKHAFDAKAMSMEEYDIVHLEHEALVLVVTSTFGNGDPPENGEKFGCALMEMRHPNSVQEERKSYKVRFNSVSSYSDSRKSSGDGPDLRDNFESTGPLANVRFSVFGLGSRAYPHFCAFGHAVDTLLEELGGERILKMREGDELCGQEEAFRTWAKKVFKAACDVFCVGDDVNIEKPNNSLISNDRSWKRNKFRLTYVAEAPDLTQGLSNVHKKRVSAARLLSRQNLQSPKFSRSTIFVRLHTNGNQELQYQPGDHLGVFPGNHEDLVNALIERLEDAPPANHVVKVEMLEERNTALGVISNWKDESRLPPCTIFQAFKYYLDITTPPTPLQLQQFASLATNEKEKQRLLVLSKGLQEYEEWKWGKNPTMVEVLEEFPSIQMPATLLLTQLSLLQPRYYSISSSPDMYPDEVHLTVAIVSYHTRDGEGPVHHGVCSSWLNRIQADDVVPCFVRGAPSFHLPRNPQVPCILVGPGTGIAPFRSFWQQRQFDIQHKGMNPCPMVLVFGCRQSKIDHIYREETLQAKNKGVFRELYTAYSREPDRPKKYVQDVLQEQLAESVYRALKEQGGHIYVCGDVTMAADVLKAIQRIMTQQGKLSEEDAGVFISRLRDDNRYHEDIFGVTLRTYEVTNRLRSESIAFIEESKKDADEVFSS

## CC1(C)C2CCC1(C)C(OC(=O)c1ccc(NCc3cc(Cl)cc(Cl)c3O)cc1O)C2 (stereo not drawn) [ZL006-05]
[1]
  PSD-95-nNOS complex level in the SDH: abolished the SNL-induced increase in PSD-95-nNOS complex in the SDH
[2]; SNL mice, ZL006-05 60 mg/kg/d, i.g., × 28 d, pregabalin 30 mg/kg/d
  Analgesic tolerance, mechanical hyperalgesia, 28 days treatment: maintained its antinociceptive effect during 28 days treatment
[2]; SNL nNOS-/- and WT mice, ZL006-05 60 mg/kg/d, i.g., 11 d
  Analgesic tolerance, mechanical hyperalgesia: caused a remarkable analgesic tolerance in nNOS^-/- mice but not in WT mice
[2]; mice, ZL006-05 i.g., single administration, 0-12 h
  Effect on SNL-induced mechanical hyperalgesia: reduced SNL-induced mechanical hyperalgesia
[3]
  Locomotor activity, distance travelled during 5 min: had no effect
[4]
  Spatial memory in the Morris water maze task: but not ZL006-05 caused significantly impaired spatial memory
